From patent US20050143321A1, “Composition with stabilized redox properties and method of stabilization of redox properties” (priority 2002, published 2005)

What was measured:
S. aureus = assay: Sensitivity of bacteria to antibiotics dissolved in composition, diffusion into nutrient agar; type: cell-based; details: for Rate of increase of sensitivity of bacteria (increase of diameters of zones of suppression vs control): Staphylococcus, antibiotic dissolved in composition pH=7.9, Eh=−230 mV
Procedure: (§1) It was used the method of preparations diffusion into nutrient agar. […] It was used sterilized water with Eh=250 mV, SCE, pH=7.9 and mineralization 350 mg/l for control.

Shigella sp. = assay: as above; type: cell-based; details: for Rate of increase of sensitivity of bacteria (increase of diameters of zones of suppression vs control): Shigella, antibiotic dissolved in composition pH=7.9, Eh=−230 mV; for change of strain sensitivity: antibiotic dissolved in composition
Procedure: as §1

Klebsiella pneumoniae = assay: as above; type: cell-based; parameters: Rate of increase of sensitivity of bacteria (increase of diameters of zones of suppression vs control): concentration or dose not given beside the values; details: for Rate of increase of sensitivity of bacteria (increase of diameters of zones of suppression vs control): Clebsiella, antibiotic dissolved in composition pH=7.9, Eh=−230 mV
Procedure: as §1

Salmonella sp. = assay: as above; type: cell-based; parameters: Rate of increase of sensitivity of bacteria (increase of diameters of zones of suppression vs control): concentration or dose not given beside the values; details: for Rate of increase of sensitivity of bacteria (increase of diameters of zones of suppression vs control): Salmonella, antibiotic dissolved in composition pH=7.9, Eh=−230 mV; for change of strain sensitivity: antibiotic dissolved in composition
Procedure: as §1

[1] = Stabilization of redox properties of water solution, 6 months storage at 50° C after autoclaving; type: physicochemical; details: autoclaved
Procedure: Water from water supply system with initial characteristics: Eh=+260 mV, SCE, and pH 6.7, is directed to the device of “Izumrud”-type, which is manufactured in Russia. On the output characteristics of water have the values: […] After sterilization these flasks with mentioned water solutions are put into the thermostat at temperature 50° C. Flasks with water solutions corresponding to this invention and stored at the mentioned temperature, protected from light, during 6 months. After 6 months flasks are opened, and the redox potential is measured.

[2] = Content of MDA in liposome dispersions (oxidation of phospholipids); type: physicochemical; details: Yolk lecithin liposomes; 1 hour
Procedure: In the experiment liposomes are made by mixing and ultrasound treatment of phospholipids of yolk and the water solution, corresponding to this invention, with specified redox properties, containing glycine. Liposomes, prepared by this method, are the milk-white suspension. […] Electrochemically activated water: anomalous properties, mechanism of biological effect. Moscow 1997, […]. 152). There was also determined the rate of oxidation of phospholipids according to content of dialdehyde malonate (DMA).

[3] = antibiotic dissolved in composition

Row | Molecule | Rate of increase of sensitivity of bacteria (increase of diameters of zones of suppression vs control) (S. aureus) | Rate of increase of sensitivity of bacteria (increase of diameters of zones of suppression vs control) (Shigella sp.) | Rate of increase of sensitivity of bacteria (increase of diameters of zones of suppression vs control) (Klebsiella pneumoniae) | Rate of increase of sensitivity of bacteria (increase of diameters of zones of suppression vs control) (Salmonella sp.) | pH after 6 months ([1]; 0.005% of weight) | pH after 6 months ([1]; 0.5% of weight) | pH after 6 months ([1]; 10% of weight) | other results
1 | NCC[C@H](O)C(=O)N[C@@H]1C[C@H](N)[C@@H](O[C@H]2O[C@H](CN)[C@@H](O)[C@H](O)[C@H]2O)[C@H](O)[C@H]1O[C@H]1O[C@H](CO)[C@@H](O)[C@H](N)[C@H]1O [Amicacin] | 4% | 38% | 34% | 18% |  |  |  | change of strain sensitivity (Shigella sp.): from medium sensitive to sensitive; change of sensitivity (Klebsiella pneumoniae; [3]): increased
2 | CC1(C)S[C@@H]2[C@H](NC(=O)[C@H](N)c3ccccc3)C(=O)N2[C@H]1C(=O)O [Ampicillin] | 22% | 44% | 7% | 26% |  |  |  | change of sensitivity (S. aureus; [3]): increased; change of strain sensitivity (Shigella sp.): from resistant to sensitive; change of strain sensitivity (Salmonella sp.): from medium sensitive to sensitive
3 | NC(=O)C[C@H](N)C(=O)O [Asparagine] |  |  |  |  | 5.9 | 6.9 | 7.0 | 
4 | O=C(N[C@H](CO)[C@H](O)c1ccc([N+](=O)[O-])cc1)C(Cl)Cl [Chloramphenicol] | 3% | 17% | 5% | 6% |  |  |  | 
5 | N[C@@H](CS)C(=O)O [Cysteine] |  |  |  |  | 7.3 | 7.8 | 6.9 | 
6 | NC(=O)CC[C@H](N)C(=O)O [Glutamine] |  |  |  |  | 5.8 | 7.2 | 7.2 | 
7 | NCC(N)=O [Glycine amide] |  |  |  |  | 6.5 | 7.4 | 7.0 | 
8 | NCC(=O)O [Glycine] |  |  |  |  | 7.2 | 7.9 | 7.7 | 
9 | NC[C@H]1O[C@H](O[C@H]2[C@H](O)[C@@H](O[C@H]3O[C@H](CO)[C@@H](O)[C@H](N)[C@H]3O)[C@H](N)C[C@@H]2N)[C@H](O)[C@@H](O)[C@@H]1O [Kanamycin] | 8% | 35% | 12% | 18% |  |  |  | 
10 | CCn1cc(C(=O)O)c(=O)c2ccc(C)nc21 [Nalidixic acid] | 3% | 33% | 11% | 42% |  |  |  | change of strain sensitivity (Salmonella sp.): from resistant to sensitive
11 | N[C@@H](CO)C(=O)O [Serine] |  |  |  |  | 7.1 | 7.8 | 7.6 | 
12 | C[C@@H](O)[C@H](N)C(=O)O [Threonine] |  |  |  |  | 7.1 | 7.5 | 7.4 | 
13 | N[C@@H](Cc1ccc(O)cc1)C(=O)O [Tyrosine] |  |  |  |  | 7.2 | 7.4 | 7.2 | Eh after 6 months ([1]; 0.005% of weight): −5 mV; Eh after 6 months ([1]; 0.5% of weight): −80 mV; Eh after 6 months ([1]; 10% of weight): −30 mV
14 | Cc1cc(C(C)(C)C)c(O)c(C(C)(C)C)c1 [Water + agidol (1.0%), agidol] |  |  |  |  |  |  |  | Content of MDA [2]: 2.0 nmol/mL
15 | Cc1cc(C(C)(C)C)c(O)c(C(C)(C)C)c1 [Water + butyl-hydroxytoluene (0.1%), butyl-hydroxytoluene] |  |  |  |  |  |  |  | Content of MDA [2]: 2.7 nmol/mL
16 | CC(=O)Oc1c(C)c(C)c2c(c1C)CCC(C)(CCC[C@H](C)CCC[C@H](C)CCCC(C)C)O2 (some centres unmarked) [Water + tocopherol acetate (2%), tocopherol acetate] |  |  |  |  |  |  |  | Content of MDA [2]: 3.1 nmol/mL
17 | Gelatin |  |  |  |  | 6.8 | 7.3 | 7.6 | 
18 | Gentamycin | 11% | 40% | 6% | 47% |  |  |  | change of strain sensitivity (Shigella sp.): from resistant to sensitive; change of strain sensitivity (Salmonella sp.): from resistant to sensitive
